What all share (test): CCK-8 cell proliferation/cytotoxicity assay
Holding throughout (type): cell-based

One assay relates to AML12 normal liver cells. The conditions noted are these: Mus musculus, AML12, 24 h, 24 h treatment. The procedure:
(§1) Cell proliferation was detected using the Cell Counting Kit-8 (CCK-8, Cat. CK04-13; Dojindo Laboratories, Kumamoto, Japan) according to the manufacturer’s instruction. To evaluate cytotoxicity, cells were seeded in a 96-well plate (FHC, 1 × 10^4 cells/well; Caki-2, PLC/PFR.5, and MCF 10A, 1 × 10^4 cells/well; AML12, HepG2, Hep3B, and Huh-7 1.2 × 10^4 cells/well; HeLa, HEK-293, A549, and PC-3, 1.5 × 10^4 cells/well; HT-29, MCF-7, C6, and NE-4C, 2 × 10^4 cells/well). After attachment and stabilization of cells for 24 h, the medium was switched with fresh containing various concentrations (0, 1, 5, 10, 25, 50, and 100 μM) of MBP-11901, and cells were incubated for 22 h. Next, CCK-8 solution was added to each well, and cells were incubated for another 2 h. Absorbance was then measured at 450 nm using a microplate reader (SpectraMax i3, Molecular Devices, San Jose, CA, USA). The IC50 and log IC50 values were calculated using GraphPad Prism (version 5.02; GraphPad PRISM software Inc. San Diego, CA, USA). All experiments were independently performed 3 times. The graph of log IC50 values represents average values.

The next assay relates to Hep3B. Conditions: Homo sapiens, 24 h treatment. The protocol:
as §1

The test system of a further assay is HepG2. The conditions noted are these: Homo sapiens; HepG2, 24 h treatment. The protocol: as §1
For a further assay, the system named is Huh-7. The conditions noted are these: Homo sapiens; Huh-7, 24 h treatment. The protocol:
as §1

Another assay has as its system PLC/PRF5. The conditions noted are these: Homo sapiens, PLC-PRF-5; PLC/PRF5, 24 h treatment. The protocol: as §1

For one molecule, IC50 results are on record in paper PMC9030223, “MBP-11901 Inhibits Tumor Growth of Hepatocellular Carcinoma through Multitargeted Inhibition of Receptor Tyrosine Kinases” (Cancers, 2022).

`CNC(=O)c1cc(Oc2ccc(NC(=O)Nc3ccc(Cl)c(C(F)(F)F)c3)cc2)ccn1` [sorafenib, reference compound]: the IC50 in the assay with AML12 normal liver cells was found to be 13.4 ± 2.77 µM; in the assay with Hep3B, 3.64 ± 0.99 µM; in the assay with HepG2 it was 3.85 ± 0.14 µM; in the assay on Huh-7, 6.47 ± 0.88 µM; with PLC/PRF5, 6.81 ± 0.76 µM.
